# Reference: article PMC10254045, “Elaboration of the Effective Multi-Target Therapeutic Platform for the Treatment of Alzheimer’s Disease Based on Novel Monoterpene-Derived Hydroxamic Acids” (International Journal of Molecular Sciences, 2023)
# Legend:
# Cell viability, MTT test = assay type: cell-based; conditions: human, SH-SY5Y neuroblastoma cells, 24-h exposure, read-out: IC50 cytotoxic action
# Description: The culture of human neuroblastoma cells (defined as SH-SY5Y) was cultured in DMEM with the addition of embryonic bovine serum (10%), 2 mM glutamine (DiaM, Moscow, Russia) and penicillin-streptomycin (100 U/Ml–100 µg/mL, PanEco, Moscow, Russia) in conditions of 5% CO2 in the air at 37 °C. Upon reaching 80% confluence, cells in the amount of 1 × 10^4 were placed in 96-well transparent plates and incubated under the same conditions for 24 h. After the incubation time, the cells were exposed to a 24-h exposure to various concentrations of hydroxamic acids dissolved in dimethyl sulfoxide (range from 1 to 100 µM). An equivalent volume of solvent was used as a control (final DMSO content = 1%).
# Cell survival analysis was performed using MTT test. To do this, 3-(4,5-dimethylthiazol-2-yl)-2,5-diphenyltetrazolium bromide (MTT, 5 mg/mL, DiaM, Moscow, Russia) was introduced into all wells and incubated at 37 °C for 2 h to restore metabolically active cells of the yellow tetrazolium salt MTT to purple formazane crystals. The resulting formazane was then re-suspended in 200 µL DMSO per well. The optical density was recorded using a multifunctional Cytation™3 flatbed analyzer (BioTek Instruments, Inc., Winooski, VT, USA) at λ = 530 nm.
# [1] = Oxygen radical absorbance capacity (ORAC); conditions: Trolox equivalent; compounds and Trolox 100 µM, AAPH 12 mM
# Source text: (§1) DPPH is a stable chromogen radical, which is widely used to assess the antioxidant activity of biological objects, in particular when searching for potential therapeutic agents used to maintain the redox balance in the body and treat pathologies associated with the action of free radicals. In turn, the oxygen radical absorbance capacity (ORAC) analysis is based on the removal by potential antioxidants of peroxyl radicals generated by AAPH (2,2’-axobis-2-methyl-propanimidamide, dihydrochloride), preventing the degradation of the fluorescein probe.
# The analysis of the absorption capacity of oxygen radicals was performed as described in [151], with some modifications. Trolox (Sigma Aldrich, St. Louis, MI, USA) was used as a standard antioxidant. The studied compounds were introduced into the holes of a 96-hole black tablet with a transparent bottom with Trolox (25 µL; the final concentration was 100 µM) and fluorescein (150 µL; the final concentration was 80 nM, Sigma Aldrich, St. Louis, MI, USA). The resulting mixture was shaken and incubated for 30 min at 37 °C. After a 30-min incubation period, a solution of 2,2’-azobis (2-amidinopropane) dihydrochloride (AAPH) (25 µL; final concentration of 12 mM, Sigma Aldrich, St. Louis, MI, USA) was quickly introduced into all wells of the tablet. The tablet was immediately placed in a multifunctional tablet analyzer Cytation™ 3 (BioTek Instruments, Inc., Winooski, VT, USA). The fluorescence intensity was recorded for 300 min at λex = 480 nm, λem = 520 nm with an interval of every 5 min. In the same experiment, calibration solutions for the reference antioxidant Trolox were used to confirm the validity of the use of this method (0, 6.25, 12.5, 25, 50 and 100 µM).
# HDAC6 = molecular target: T1, HDAC6 (Homo sapiens, UniProt Q9UBN7); test: Fluorimetric measurement of HDAC6 activity (FLUOR DE LYS kit); assay type: biochemical; conditions: for IC50: Table 1, read-out: HDAC6-Inhibitory Effect, IC50; for ability to inhibit the enzymatic activity of HDAC6: in words
# T1 construct: purchased Enzo Life Sciences
# T1 sequence (Q9UBN7 1-1215): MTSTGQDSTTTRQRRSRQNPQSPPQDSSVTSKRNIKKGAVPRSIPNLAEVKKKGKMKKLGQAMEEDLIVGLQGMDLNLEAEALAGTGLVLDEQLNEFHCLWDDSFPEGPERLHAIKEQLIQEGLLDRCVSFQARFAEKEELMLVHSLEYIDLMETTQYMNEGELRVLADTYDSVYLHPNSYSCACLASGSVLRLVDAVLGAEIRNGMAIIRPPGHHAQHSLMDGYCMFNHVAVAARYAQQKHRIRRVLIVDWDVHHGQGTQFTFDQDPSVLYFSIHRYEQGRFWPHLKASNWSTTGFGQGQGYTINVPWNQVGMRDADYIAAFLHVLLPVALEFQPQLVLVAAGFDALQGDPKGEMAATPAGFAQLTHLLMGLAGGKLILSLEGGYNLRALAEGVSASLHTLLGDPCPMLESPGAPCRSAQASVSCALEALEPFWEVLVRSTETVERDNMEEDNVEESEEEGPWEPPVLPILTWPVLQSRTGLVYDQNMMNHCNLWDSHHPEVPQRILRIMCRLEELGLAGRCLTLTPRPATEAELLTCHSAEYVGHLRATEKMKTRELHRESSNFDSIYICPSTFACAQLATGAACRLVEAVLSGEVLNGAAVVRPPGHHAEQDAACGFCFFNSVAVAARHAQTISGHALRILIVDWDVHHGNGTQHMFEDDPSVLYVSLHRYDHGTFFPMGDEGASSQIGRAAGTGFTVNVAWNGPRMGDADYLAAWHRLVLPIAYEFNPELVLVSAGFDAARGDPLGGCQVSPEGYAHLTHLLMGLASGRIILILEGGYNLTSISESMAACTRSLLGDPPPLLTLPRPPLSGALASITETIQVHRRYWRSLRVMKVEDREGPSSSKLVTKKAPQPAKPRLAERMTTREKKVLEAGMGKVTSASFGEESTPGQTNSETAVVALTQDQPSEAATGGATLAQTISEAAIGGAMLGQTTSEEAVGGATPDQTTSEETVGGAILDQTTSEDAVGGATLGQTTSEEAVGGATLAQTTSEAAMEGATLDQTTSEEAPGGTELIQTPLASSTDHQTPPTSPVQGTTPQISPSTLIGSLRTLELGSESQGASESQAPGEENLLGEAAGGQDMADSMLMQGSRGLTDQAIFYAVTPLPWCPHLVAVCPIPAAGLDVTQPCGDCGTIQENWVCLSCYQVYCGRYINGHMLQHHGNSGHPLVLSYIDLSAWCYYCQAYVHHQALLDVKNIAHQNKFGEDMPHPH
# [2] = DPPH radical scavenging activity; conditions: Trolox equivalent; compounds and Trolox 100 µM
# Source text: as §1
# The measurement of the antiradical activity of synthesized hydroxamic acids was carried out using the method described in [150]. The studied compounds were introduced into the wells of a 96-well black tablet (the final concentration was 100 microns), after which a freshly prepared solution of 2,2-diphenyl-1-picrylhydrazyl (Sigma Aldrich, St. Louis, Missouri, USA) was added. After the incubation time had elapsed, the DPPH radical-scavenging activity was measured using a multifunctional Cytation™3 tablet analyzer (BioTek Instruments, Inc., Winooski, VT, USA) at λ = 517 nm by the difference in the reduction of the DPPH radical peak between control samples containing an equivalent volume of solvent and samples with the substances under study.
# [3] = molecular target: T2, β-amyloid peptide 1-42 (Aβ1-42) (Homo sapiens, UniProt P05067); test: Thioflavin T fluorescent analysis of Aβ1-42 aggregation; assay type: biochemical; conditions: 48 h, compounds 100 µM, Thioflavin T 10 µM, 48 h registration; read-out: prevention of the aggregation of Aβ1-42
# T2 construct: the pathological form of β-amyloid peptide 1-42 (Sigma Aldrich); purchased Sigma Aldrich
# Source text: The aggregation process of β-amyloid peptide 1-42 (Aβ1-42), caused by hydrophobic interactions of peptide monomers and, as a consequence, the formation of the most toxic polymorphic structure-oligomeric fragments of Aβ, was detected using the fluorescent dye Thioflavin T (Figure 4a). This method is the most widely used for selective staining and the identification of amyloid aggregates, which is confirmed by a large number of works. Fluorescence analysis using Thioflavin T made it possible to monitor the aggregation process of the pathological form of β-amyloid peptide 1-42 (Sigma Aldrich, St. Louis, MI, USA). The experimental protocol was carried out similarly to that described in [58] with some modifications. The registration of changes in the fluorescence of thioflavin T (10 µM, Sigma Aldrich, St. Louis, MI, USA) was performed on a multifunctional tablet analyzer Cytation™3 (BioTek Instruments, Inc., Winooski, VT, USA) at λex = 450 nm, λem = 480 nm. The fluorescence intensity of the solution without Aβ1-42 was subtracted from the fluorescence values of solutions containing protein, due to the need to subtract the background fluorescence.
# T2 sequence (P05067 672-713 limits assumed): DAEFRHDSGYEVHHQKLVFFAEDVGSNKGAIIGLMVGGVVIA
SMILES,IC50 (HDAC6) [µM],ability to inhibit the enzymatic activity of HDAC6 (HDAC6),inhibition at 100 µM [3] [%],melting point [°C],"IC50 at 24 h (Cell viability, MTT test) [µM]",ORAC value (TE) [1] [TE],DPPH value (TE) [2] [TE]
"CC1=CC[C@@H](CC(=O)NO)C1(C)C [(+)-13, (S)-N-Hydroxy-2-(2,2,3-trimethylcyclopent-3-en-1-yl)acetamide]",> 100,no significant ability,,,> 100,0.94,0.26
"CC1(C)[C@@H]2CC=C(C(=O)NO)[C@H]1C2 [(+)-19, (1S,5R)-N-Hydroxy-6,6-dimethylbicyclo [3.1.1]hept-2-ene-2-carboxamide]",> 100,no significant ability,,,> 100,1.02,0.50
"CC1=CC[C@H](CC(=O)NO)C1(C)C [(-)-13, (R)-N-Hydroxy-2-(2,2,3-trimethylcyclopent-3-en-1-yl)acetamide]",> 100,no significant ability,,,> 100,0.93,0.39
"CC1(C)[C@H]2CC=C(C(=O)NO)[C@@H]1C2 [(-)-19, (1R,5S)-N-Hydroxy-6,6-dimethylbicyclo [3.1.1]hept-2-ene-2-carboxamide]",> 100,no significant ability,,,> 100,0.85,0.15
"CC(CCCC(C)(C)O)CC(=O)NO (stereo not shown) [Compound 5, N,7-dihydroxy-3,7-dimethyloctanamide]",> 100,no significant ability,,,> 100,0.88,0.17
"CC(C)CCCC(C)CC(=O)NO (stereo not shown) [Compound 8, N-Hydroxy-3,7-dimethyloctanamide]",> 100,no significant ability,,,> 100,0.83,0.36
"CC(C)=CCCC(C)CC(=O)NO (stereo not shown) [Compound 10, N-Hydroxy-3,7-dimethyloct-6-enamide]",> 100,no significant ability,,,> 100,0.84,0.19
"CC(C)c1ccc(CNC(=O)/C=C/c2ccc(C(=O)NO)cc2)cc1 [Compound 35b, (E)-N-hydroxy-4-(3-((4-isopropylbenzyl)amino)-3-oxoprop-1-en-1-yl)benzamide]",8.23 ± 0.4,,59.9,187.4 to 189.7,> 100,1.00,0.50

# Further lines, with some results ahead:
IC50 (HDAC6) [µM],ability to inhibit the enzymatic activity of HDAC6 (HDAC6),inhibition at 100 µM [3] [%],melting point [°C],SMILES,"IC50 at 24 h (Cell viability, MTT test) [µM]",ORAC value (TE) [1] [TE],DPPH value (TE) [2] [TE]
87.4 ± 2.33,no significant ability,,,"C=C(C)[C@@H]1CC=C(C(=O)NO)CC1 [Compound 16, (S)-N-Hydroxy-4-(prop-1-en-2-yl)cyclohex-1-enecarboxamide]",> 100,0.87,0.23
0.56 ± 0.01,,≤ 40,113.5 to 116,"C=C(C)[C@@H]1CC=C(CNC(=O)CCCCCCC(=O)NO)CC1 [Compound 30, (S)-N1-Hydroxy-N8-((4-(prop-1-en-2-yl)cyclohex-1-en-1-yl)methyl)octanediamide]",> 100,0.87,0.25
0.74 ± 0.02,,≤ 40,110.8,"C=C(C)[C@@H]1CC=C(CNC(=O)CCCCCCCC(=O)NO)CC1 [Compound 31, (S)-N1-hydroxy-N9-((4-(prop-1-en-2-yl)cyclohex-1-en-1-yl)methyl)nonanediamide]",89.4 ± 3.92,0.82,0.30
6.9 ± 0.43,,≤ 40,139.5 to 141.4,"CC1(C)[C@H]2CC[C@@H](CNC(=O)/C=C/c3ccc(C(=O)NO)cc3)[C@@H]1C2 [Compound 35c, 4-((E)-3-((((1S,2R,5S)-6,6-dimethylbicyclo[3.1.1]heptan-2-yl)methyl)amino)-3-oxoprop-1-en-1-yl)-N-hydroxybenzamide]",86.7 ± 1.45,1.02,0.71
